Test results: publication PMC8769072, “Proteome‐scale mapping of binding sites in the unstructured regions of the human proteome” (Molecular Systems Biology, 2022)

System: immobilized GST-tagged bait protein domains
Assay: ProP-PD phage selections (HD2 P8, sublibraries, HD2 P3, HD1 P8) with NGS and confidence level
Format: binding, human
Settings: for HD2_nucleus confidence: library HD2 P8 nucleus
[1] = HD2 library, bait TSG101_UEV__Q99816_1_145, known motif instance of the benchmarking set found (TRUE) or not found (FALSE) among selected peptides
[2] = bait CLTC_Clathrin-propeller__Q00610_1_364, library HD2, benchmarking set of validated motif instances, TRUE = motif instance recovered in the ProP-PD selection
[3] = HD2 library, bait SUMO1_SUMO__P63165_1_101, known motif instance of the benchmarking set found (TRUE) or not found (FALSE) among selected peptides
[4] = library HD2, bait EPS15_EH__P42566_121_215, whether the validated benchmark motif instance was recovered in the ProP-PD selection (TRUE/FALSE)
[5] = library HD2, bait EIF4E_eIF4E__P06730_1_217, whether the validated benchmark motif instance was recovered in the ProP-PD selection (TRUE/FALSE)
[6] = HD2 library, bait TNKS_TANK-peptide-bind__O95271_174_649, known motif instance of the benchmarking set found (TRUE) or not found (FALSE) among selected peptides
[7] = bait MAP1LC3B_ATG8 (Q9GZQ8 2-119), HD2 library, benchmark motif instance recovered in the ProP-PD selection (TRUE/FALSE)
[8] = library HD2, bait WDR5_WD_1234567_P61964_21_334, validated benchmark motif instance, in_library_check TRUE, TRUE/FALSE = instance recovered in ProP-PD selection
[9] = library HD2, bait TSG101_UEV__Q99816_1_145, validated benchmark motif instance, in_library_check TRUE, TRUE/FALSE = instance recovered in ProP-PD selection
[10] = library HD2, bait VASP_EVH1__P50552_1_114, validated benchmark motif instance, in_library_check TRUE, TRUE/FALSE = instance recovered in ProP-PD selection
[11] = library HD2, bait EPS15_EH__P42566_121_215, best matching peptide
[12] = library HD2, bait EPS15_EH__P42566_121_215, confidence level of best matching peptide (4 High, 2-3 Medium, 1 Low)
[13] = library HD2, bait USP7_MATH-TRAF__Q93009_53_206, validated benchmark motif instance, in_library_check TRUE, TRUE/FALSE = instance recovered in ProP-PD selection
[14] = bait KPNA4_Arm (O00629 68-487), HD2 library, benchmark motif instance recovered in the ProP-PD selection (TRUE/FALSE)
[15] = bait PEX14_Pex14__O75381_16_84, HD2 library, whether the validated benchmark motif instance was recovered in the ProP-PD selection (TRUE/FALSE)

## PAPALPPKPPKPTTVA
Bait CRK_SH3_1_P46108_124_198, library HD2, best matching peptide
  best_specificity: 1
Bait CRK_SH3_1_P46108_124_198, library HD2, confidence level of best matching peptide (4 = High, 2 or 3 = Medium, 1 = Low)
  best_confidence: 2

## PAPAPLPPPSAPSLQPSRKL
[1]
  motif_found: FALSE

## PATKEISLLDLEDFTPPSV [AP3B2]
[2]
  motif_found: FALSE

## PEISLEAEPIELVETAGDEIVD
[3]
  motif_found: FALSE

## PFEEPTCINPFEMDSDSGP
[4]
  motif_found: FALSE

## PFSEQASLLDLDFDPLPPV [BIN1]
[2]
  motif_found: FALSE

## PGADVVDLTLDSSSSS
Bait SUMO1_SUMO__P63165_1_101, HD2 library, confidence level (1-4) of best matching selected peptide
  best_confidence: 2
Bait SUMO1_SUMO__P63165_1_101, HD2 library, specificity score of best matching selected peptide
  best_specificity: 1
Bait SUMO1_SUMO__P63165_1_101, HD2 library, whether the validated benchmark motif instance was recovered in the ProP-PD selection (TRUE/FALSE)
  motif_found: TRUE

## PGGGHPAPSWVAFAHT
Bait AP2B1_adaptin__P63010_700_937, HD2 P8 selection, non primary paralogue peptide match, confidence level -4 to 4: 4 = High, 3 or 2 = Medium, 1 = Low, 0 = Filtered/Noise
  HD2 confidence: 4

## PGGTRIIYDRKFLLDRRNSPM
[5]
  motif_found: FALSE

## PGGTRIIYDRKFLLECKNSPI
[5]
  motif_found: FALSE

## PGPPAPNTNPFLL------
[4]
  motif_found: FALSE

## PGSAPPPQAQGPPYPTYPGYPGYCQ,QAQGPPYPTYPGY [PDCD6IP]
Bait CEP55_EABR__Q53EZ4_160_217, library HD2, benchmarking set of validated motif instances, TRUE = motif instance recovered in the ProP-PD selection
  motif_found: FALSE

## PIPHDGNLYPRLYPELSQY [SDCBP 45-49]
HD2 library, bait PDCD6IP_Alix-V-domain__Q8WUM4_360_702, benchmark motif instance, in_library_check FALSE, in_library_coverage 0
  motif_found: FALSE

## PLIDLPLIDFCDTPEA
Bait CLTC_Clathrin-propeller__Q00610_1_364, HD2 P8 nucleocytoplasmic sublibrary, confidence level (4 = High, 2-3 = Medium, 1 = Low)
  HD2_nc confidence: 4
Bait CLTC_Clathrin-propeller__Q00610_1_364, HD2 P8 nucleocytoplasmic sublibrary, mean NGS counts over replicate selections
  HD2_nc mean counts: 154.7
Bait CLTC_Clathrin-propeller__Q00610_1_364, HD2 P8 nucleocytoplasmic sublibrary, mean proportion of NGS counts
  HD2_nc count proportions: 0.002602

## PLTKDVSLLDLDDFNPVST [AP3B1]
[2]
  motif_found: FALSE

## PLYTSPSLPNITLGLP
Bait ANKRA2_Ank__Q9H9E1_142_313, library HD2, best matching peptide
  best_specificity: 1
Bait ANKRA2_Ank__Q9H9E1_142_313, library HD2, confidence level of best matching peptide (4 = High, 2 or 3 = Medium, 1 = Low)
  best_confidence: 3

## PMLPDLTLEAWPSTDK
Library HD, bait ANKRA2_Ank__Q9H9E1_142_313, ProP-PD peptides with disease-related mutations
  confidence: 3

## PPAEEPEARPDGEGSPGKARPG
[6]
  motif_found: FALSE

## PPAGLNSSWVELPMNSSNG
[7]
  motif_found: FALSE

## PPAPVNDEPIVIED-------
[3]
  motif_found: FALSE

## PPDTKLSKLDVLLLAT
Bait SIN3A_PAH__Q96ST3_295_383
  HD2_nucleus confidence: 4

## PPGPPPPYHAHAHLHH
Bait YAP1_WW_1_P46937_169_207, library HD
  HD confidence: 3
Bait YAP1_WW_1_P46937_169_207, library HD2 P3
  p3_HD2 confidence: 2
Bait YAP1_WW_1_P46937_169_207, library HD2 P3, mean normalised NGS counts
  p3_HD2 count proportions: 0.001797
Bait YAP1_WW_1_P46937_169_207, library HD2 P3, mean raw NGS counts, all selections
  p3_HD2 mean counts: 44.67
Bait YAP1_WW_1_P46937_169_207, library HD2 P8
  HD2 confidence: 4
Bait YAP1_WW_1_P46937_169_207
  HD2_nucleus confidence: 4
Bait YAP1_WW_1_P46937_169_207, library HD, mean normalised NGS counts
  HD count proportions: 0.02186
Bait YAP1_WW_1_P46937_169_207, library HD, mean raw NGS counts, all selections
  HD mean counts: 187.3

## PPLNPHGAARAEVYLRKCTFD
[8]
  motif_found: FALSE

## PPLNPHGSARAEVHLRKSAFD
[8]
  motif_found: FALSE

## PPMGEVVTPTAPQEPPESVR
[9]
  motif_found: FALSE

## PPPEDFPLPPPPLAGDGDD
[10]
  motif_found: FALSE

## PPPIEESFPPAPLEEEIFP
[10]
  motif_found: FALSE

## PPPPPEDFPLPPPPLAGDG
[10]
  motif_found: FALSE

## PPRLPELAPTAPLPYPAPEA
[1]
  motif_found: FALSE

## PQLPHLQRSPPDGQSF
HD2 library, bait TNKS_TANK-peptide-bind__O95271_174_649, best matching selected peptide
  best_specificity: 1
HD2 library, bait TNKS_TANK-peptide-bind__O95271_174_649, confidence level of best matching selected peptide
  best_confidence: 2
[6]
  motif_found: TRUE

## PQPKLPYLPTFPFSMP
Bait ANKRA2_Ank__Q9H9E1_142_313, HD2 P8 selection, confidence level -4 to 4: 4 = High, 3 or 2 = Medium, 1 = Low, 0 = Filtered/Noise
  HD2 confidence: 2

## PQYLNPFDEPEAFVTI
[11]
  best_specificity: 1
[12]
  best_confidence: 2
[4]
  motif_found: TRUE

## PREHQTGSARSEGYYPISKKE
[8]
  motif_found: FALSE

## PSENSNEFEWEDDLPKPKTTEVIR
Library HD2, bait KLC1_TPR__Q07866_203_497, whether the validated benchmark motif instance was recovered in the ProP-PD selection (TRUE/FALSE)
  motif_found: FALSE

## PSNPDLDAGVSEHSGDWLD
[13]
  motif_found: FALSE

## PSTNPFVAAAGPSVAS
[11]
  best_specificity: 1
[12]
  best_confidence: 2
[4]
  motif_found: TRUE

## PSTRKDYPAAKRVKLDSVRVLR
[14]
  motif_found: FALSE

## PVLEKDDLMDMDASQQNLF [HIP1]
[2]
  motif_found: FALSE

## PYGDDMTVRKQPEGNPKPDIIE
[6]
  motif_found: FALSE

## QASALSFPAPPSRPLPPDPV [ADAM15]
Bait CRK_SH3_1_P46108_124_198, library HD2, benchmarking set of validated motif instances, TRUE = motif instance recovered in the ProP-PD selection
  motif_found: FALSE

## QDLLELKSVIKLQAWWRGTMIRR,DLLELKSVIKLQAWWRGTMIRREIGGFKMPK [IQCG 397-411]
HD2 library, bait CALM1_EF-hand__P0DP23_2_149, benchmark motif instance, in_library_check FALSE, in_library_coverage 0
  motif_found: FALSE

## QDYNETDWSQEFISEVTDP
[15]
  motif_found: FALSE

## QELLSVGSKRRRTGGSLRGN
[14]
  motif_found: FALSE

## QELQEEKPSSSHLVSRPST
[13]
  motif_found: FALSE

## QENMRSSPNPFITGLTRTN
[4]
  motif_found: FALSE

## QEPPESVRPSAPPAELEVQA
[9]
  motif_found: FALSE

## QERPLTNKLKRKRRPTSGLHPE
[14]
  motif_found: FALSE

## QFSLYTSPSLPNISLGLQATVTVT [HDAC5]
Bait ANKRA2_Ank__Q9H9E1_142_313, library HD2, benchmarking set of validated motif instances, TRUE = motif instance recovered in the ProP-PD selection
  motif_found: TRUE

## QGSWVELHFSNNGNGG
Bait MAP1LC3A_ATG8 (Q9H492 2-121), HD2 library, benchmark motif instance recovered in the ProP-PD selection (TRUE/FALSE)
  motif_found: TRUE
Bait MAP1LC3A_ATG8 (Q9H492 2-121), HD2 library, confidence level (1-4) of best matching peptide
  best_confidence: 3
Bait MAP1LC3A_ATG8 (Q9H492 2-121), HD2 library, specificity score of best matching peptide
  best_specificity: 1
[7]
  motif_found: TRUE
Bait MAP1LC3B_ATG8 (Q9GZQ8 2-119), HD2 library, confidence level (1-4) of best matching peptide
  best_confidence: 3
Bait MAP1LC3B_ATG8 (Q9GZQ8 2-119), HD2 library, specificity score of best matching peptide
  best_specificity: 1

## QLSPNAKEFVYNGGGS
Bait PABP-B_PABP__P11940_544_623, HD2 library, confidence level (1-4) of best matching selected peptide
  best_confidence: 4
Bait PABP-B_PABP__P11940_544_623, HD2 library, specificity score of best matching selected peptide
  best_specificity: 1
Bait PABP-B_PABP__P11940_544_623, HD2 library, whether the validated benchmark motif instance was recovered in the ProP-PD selection (TRUE/FALSE)
  motif_found: TRUE

## QMPADTPPPAYLPPEDPM
Bait NEDD4_WW_4 (P46934 890-928), HD2 library, benchmark motif instance recovered in the ProP-PD selection (TRUE/FALSE)
  motif_found: FALSE

## QQGTSDAWVDQFTRPVNTS
[15]
  motif_found: FALSE

## QQHEGPSLNPFDEEDLSSP
[4]
  motif_found: FALSE

## QQKQRQKHFNRQIPAAASLIQTAWRCYAAENPDSSTWKIYIRKAPRSHTLLSPSPKPKKSVVVKKKKFKLDKDNGVTPGEKMLTVPHITCDPPEERRLDHFSVDGYDSSVRKSPTLLEVSMPHFMRTNSFAEDLDLEGETLLTPITHISQLREHHRATIKVIRRMQYFVAKKKFQQARKP [KCNQ1]
Bait CALM1_EF-hand__P0DP23_2_149, library HD2, benchmarking set of validated motif instances, TRUE = motif instance recovered in the ProP-PD selection
  motif_found: FALSE

## QQQLNWKQDSNPLYKSAITTTI
HD2 library, bait TLN1_PTB__Q9Y490_309_401, known motif instance of the benchmarking set found (TRUE) or not found (FALSE) among selected peptides
  motif_found: FALSE
